One data set relates to C6 cells. Description: Cytotoxicity on C6 cells (CellTiter Glo). The class given is cell-based, rat. The procedure:
(§1) Drug concentration (OM) Drug concentration ( nM) […]
(§2) Supplementary Fig 7 . Cytotoxicity of peptide-conjugated SN38, free peptide s and unconjugated SN-38 and irinotecan (CPT-11) on C6 and B16 cells cultured in vitro. Rat glioma C6 and mouse melanoma B16 cells were treated with reagents shown along the top panels at the concentration indicated and cultured for 2 days. Cell viability was determined by a CellTiter Glo (Promega) assay. The IC50 of each reagent was determined using GraphPad Prism program. N.D.: not determined.
(In ATP-based viability assays light output follows the ATP content of the culture.)

The next data set relates to B16 cells. Put plainly: Cytotoxicity on B16 cells (CellTiter Glo). The format is cell-based, mouse. How it is done:
as §1, §2

Data set [1] deals with C6-Luc brain and subcutaneous tumours. Description: C6-Luc dual-tumour model in NOD-SCID mice. The format is in vivo, rat tumour cells in NOD-SCID mice. The procedure: (§3) C6-Luc cells (5 × 10^4 suspended in 2 μl PBS) were injected into C57BL/6 mouse brain striatum using a stereotaxic frame as described previously.[21] Seven days later, mice underwent imaging for luciferase-expressing tumours. To do so, 100 μl luciferin (30 mg/ml PBS) was injected peritoneally. Mice were then anesthetised under isoflurane gas (20 ml/min) supplemented with oxygen (1 ml/min) and placed under a camera equipped with a Xenogen IVIS 200 imager at both the SBP and AIST animal facilities. Photon numbers were measured for 1–10 sec or for 1 min. For the dual-tumour model, C6-Luc cells were similarly injected into the brain of NOD-SCID mice. When a brain tumour became detectable by IVIS imager, C6-Luc cells (2 × 10^5 suspended in 100 μl PBS) were injected subcutaneously into the dorsal flank of the same mice. Photon numbers in brain and subcutaneous tumours were measured using the IVIS imager. The dual-tumour model was also produced using B16-Luc cells in the isogeneic C57BL/6 mouse. B16-Luc cells (5 × 10^4) were injected into brains of 8–10-weeks-old C57BL/6 female mice as described above for C6-Luc cells. When brain tumours became detectable, B16-Luc cells (2 × 10^5 cells) were injected subcutaneously into the dorsal flank of the same mouse. […]
Next, to compare drug dosages required to suppress growth of brain versus subcutaneous tumours in vivo, we undertook experiments with a dual-tumour model, in which a single SCID mouse received C6-Luc cells both in brain and under the skin (Fig. 4a, Supplementary Fig. 8A). Mice were then injected intravenously with IF7C(RR)-SN38 and tumour growth in both locations was assessed in vivo by photon number.
Fig. 4 Effect of IF7C(RR)-SN38 on the dual-tumour model mice. a Dual-tumour model was established with C6-Luc cells in NOD-SCID mice. […] Growth of B16-Luc cells were monitored as in a similar manner as in a, followed by intravenous injection with either IF7C(RR)-SN38 (7.0 μmoles/kg), irinotecan (CPT-11) (50 μmoles/kg) or buffer control daily for 6 days. […] Statistical analysis was assessed by Student’s t-test.

Data set [2] deals with B16-Luc brain and subcutaneous tumours. Put plainly: B16-Luc dual-tumour model in C57BL/6 mice. The format is in vivo, mouse (C57BL/6). The procedure: (§4) C6-Luc cells (5 × 10^4 suspended in 2 μl PBS) were injected into C57BL/6 mouse brain striatum using a stereotaxic frame as described previously.[21] Seven days later, mice underwent imaging for luciferase-expressing tumours. To do so, 100 μl luciferin (30 mg/ml PBS) was injected peritoneally. Mice were then anesthetised under isoflurane gas (20 ml/min) supplemented with oxygen (1 ml/min) and placed under a camera equipped with a Xenogen IVIS 200 imager at both the SBP and AIST animal facilities. Photon numbers were measured for 1–10 sec or for 1 min. For the dual-tumour model, C6-Luc cells were similarly injected into the brain of NOD-SCID mice. When a brain tumour became detectable by IVIS imager, C6-Luc cells (2 × 10^5 suspended in 100 μl PBS) were injected subcutaneously into the dorsal flank of the same mice. Photon numbers in brain and subcutaneous tumours were measured using the IVIS imager. The dual-tumour model was also produced using B16-Luc cells in the isogeneic C57BL/6 mouse. B16-Luc cells (5 × 10^4) were injected into brains of 8–10-weeks-old C57BL/6 female mice as described above for C6-Luc cells. When brain tumours became detectable, B16-Luc cells (2 × 10^5 cells) were injected subcutaneously into the dorsal flank of the same mouse.
(§5) IF7C(RR)-SN38 was injected intravenously through the tail vein into tumour-bearing mice once photon number of C6-Luc brain tumour reached 5 × 10^4, which usually occurred after 2 weeks. IF7C(RR)-SN38 (142 μg or 0.0567 μmoles) dissolved in 10 μl dimethylsulfoxide (DMSO) diluted with 100 μl of 50% Cremophore EL in ethanol plus 90 μl PBS was injected intravenously through the tail vein. As the average body weight of a mouse was 18 g, IF7C(RR)-SN38 dose per injection was 3.15 μmoles/kg. For B16-Luc brain tumours, IF7C(RR)-SN38 formulated with Cremophore EL was used at the dosage 7.0 μmoles/kg. Irinotecan (CPT-11), a water soluble SN38 prodrug, was dissolved in PBS and intravenously injected into mice at 50 μmoles /kg. In another set of experiments, brain tumour-bearing mice were treated with IF7C(RR)-SN38 (100 μg or 0.0412 μmoles) dissolved in 10 μl DMSO followed by dilution with 100 μl 10% Solutol HS15 in water. In that case, drug dosage was 2.5 μmoles/kg. Similarly formulated C(RR)-SN38 served as control.
Fig. 4 Effect of IF7C(RR)-SN38 on the dual-tumour model mice. a Dual-tumour model was established with C6-Luc cells in NOD-SCID mice. C6-Luc cells were grown both in brain and under the skin of mice. When tumours in brain and subcutaneous grew by showing photon number more than 2×10^4, IF7C(RR)-SN38 (3.15 μmoles/kg) was injected intravenously daily through tail vein for 9 days. b Effect of IF7C(RR)-SN38 on a dual-tumour model with B16-Luc melanoma cells in C57BL/6 mice. Growth of B16-Luc cells were monitored as in a similar manner as in a, followed by intravenous injection with either IF7C(RR)-SN38 (7.0 μmoles/kg), irinotecan (CPT-11) (50 μmoles/kg) or buffer control daily for 6 days. The drug was diluted in Cremophore EL. In each a and b, error bars denote means ± SEM. Statistical analysis was assessed by Student’s t-test.

Another data set relates to B16-Luc brain tumours. Put plainly: B16-Luc brain tumour in C57BL/6 mice, Solutol HS15 formulation. The following applies: 2.5 μmoles/kg i.v. daily for 7 days. The format is in vivo, mouse (C57BL/6). How it is done: as §4, §5
Fig. 5 Therapeutic effect of IF7C(RR)-SN38 formulated with Solutol HS15. a Effect of IF7C(RR)-SN38 on B16-Luc brain tumours in C57BL/6 mice. b Effect of IF7C(RR)-SN38 on C6-Luc brain tumours in nude mice. In these experiments, drug dosage was 2.5 μmoles/kg each for IF7C(RR)-SN38 or C(RR)-SN38 (control), diluted with 10% Solutol HS15 in water and administered daily for 7 days. Note that the B16 brain tumours continued shrinking after ceasing administration of IF7C(RR)-SN38 in C57BL/6 mice. In each a and b, error bars denote means ± SEM. Statistical analysis was assessed by Student’s t-test.

The subject of the next data set is C6-Luc brain tumours. Put plainly: C6-Luc brain tumour in nude mice, Solutol HS15 formulation. The class given is in vivo, rat tumour cells in nude mice. The conditions noted are these: 2.5 μmoles/kg i.v. daily for 7 days, 10% Solutol HS15. The procedure: as §3, with “cells.” for “cells. When brain tumours became detectable, B16-Luc cells (2 × 10^5 cells) were injected subcutaneously into the dorsal flank of the same mouse.”
Fig. 5 Therapeutic effect of IF7C(RR)-SN38 formulated with Solutol HS15. a Effect of IF7C(RR)-SN38 on B16-Luc brain tumours in C57BL/6 mice. b Effect of IF7C(RR)-SN38 on C6-Luc brain tumours in nude mice. […] Statistical analysis was assessed by Student’s t-test.

For another data set, the system named is B16-Luc cells. Description: B16-Luc rechallenge of brain tumour-recovered mice. The format is in vivo, mouse (C57BL/6). The following applies: mice recovered from brain B16-Luc tumours after treatment; 4 days after s.c. injection. How it is done: (§6) The presence of tumour-infiltrating lymphocytes, especially CD8^+ cytotoxic T cells, is correlated with better prognosis of various cancers.[32],[33] To assess possible involvement of cytotoxic T cells in an antitumour response by host mice, we injected two isogenic cell lines, B16-Luc and LL/2-Luc, into naïve C57BL/6 mice and also into C57BL/6 mice that recovered from brain B16-Luc tumours following IF7C(RR)-SN38 treatment. When these cells were injected subcutaneously in a naïve mouse, both lines formed tumours (Fig. 6a, left).
(§7) Fig. 6 Immunological rejection of the cancer cells from the mouse recovered from brain tumour by IF7C(RR)-SN38 therapy. a Growth of two syngeneic cancer lines in naïve and brain tumour-recovered mice 4 days after subcutaneous injection of LL/2-Luc or B16-Luc cells. b Immunohistochemistry with anti-CD8 antibody of B16-Luc cells at subcutaneous injection sites, 20 h after B16-Luc cell injection. Scale bars: 100 μm. c Quantitative analysis of CD8^+ cells in subcutaneous injection sites.

The subject of a further data set is LL/2-Luc cells. Description: LL/2-Luc rechallenge of brain tumour-recovered mice. The class given is in vivo, mouse (C57BL/6). The conditions noted are these: mice recovered from brain B16-Luc tumours after treatment; 4 days after s.c. injection. How it is done: as §6, §7
For a further data set, the system named is CD8+ T cells. Put plainly: CD8+ cell infiltration at B16-Luc injection site (immunohistochemistry). The format is in vivo, mouse (C57BL/6). The conditions noted are these: recovered C57BL/6 mice; 20 h after B16-Luc s.c. injection (naïve: 0.2 cells/HPF). How it is done: as §7
The nature of data set [3]: LC-MS/MS analysis of SN38 in brain tumours. The class given is in vivo, mouse. The following applies: mice intravenously injected with IF7C(RR)-SN38.
[4] abbreviates: 3.15 μmoles/kg i.v. daily, 9 days, Cremophore EL.
The mark [5] stands for this setting: 7.0 μmoles/kg i.v. daily, 6 days, Cremophore EL.

The results in this text go back to publication PMC7686308, “Overcoming the blood–brain barrier by Annexin A1-binding peptide to target brain tumours” (British Journal of Cancer, 2020).

Entries after “also recorded” stand apart in the source; their conditions may differ. Peptide text beside a SMILES is read from it. * marks the point of attachment. X1 = CCc1c2c(nc3ccc(OC(=O)C4CCC(CNC(=O)C5CCC(CN6C(=O)CC(*)C6=O)CC5)CC4)cc13)-c1cc3c(c(=O)n1C2)COC(=O)[C@]3(O)CC

In the case of `CCc1c2c(nc3ccc(OC(=O)C4CCC(CNC(=O)C5CCC(CN6C(=O)CC(SC[C@H](NC(=O)[C@H](CCCNC(=N)N)NC(=O)[C@H](CCC(N)=O)NC(=O)[C@H](Cc7c[nH]c8ccccc78)NC(=O)[C@H](CC(C)C)NC(=O)[C@H](CC(C)C)NC(=O)[C@H](Cc7ccccc7)NC(=O)[C@@H](N)[C@@H](C)CC)C(=O)N[C@@H](CCCNC(=N)N)C(=O)N[C@@H](CCCNC(=N)N)C(=O)O)C6=O)CC5)CC4)cc13)-c1cc3c(c(=O)n1C2)COC(=O)[C@]3(O)CC` (stereo partly drawn) [IF7C(RR)-SN38] (H-IFLLWQRC(X1)RR-OH; N-terminus and C-terminus assumed), in the data set with C6 cells (C6, 2 days, CellTiter Glo, GraphPad Prism), the logIC50 is 1.812. Besides, in the data set on C6 cells (in vitro, C6 cells), the “cytotoxic activity compared with free SN38” value is “comparable to those of free SN38”. The same molecule gave a logIC50 with B16 cells (B16, 2 days, CellTiter Glo, GraphPad Prism) of 2.171. Also, the “cytotoxic activity compared with free SN38” value in the data set on B16 cells (in vitro, B16 cells) is “comparable to those of free SN38”. Further, in [1] (setting [4]), the “brain tumour growth (photon number)” value is given as “significantly suppressed tumour growth relative to buffer controls” and the “subcutaneous tumour growth (photon number)” value is “significantly suppressed tumour growth relative to buffer controls”. In data set [1] (3.15 μmoles/kg, C6-Luc, NOD-SCID), the “brain versus subcutaneous tumour effect” value was “effect of IF7C(RR)-SN38 on brain tumours is comparable to that on subcutaneous tumours”. In data set [2] (setting [5]), the “brain tumour growth (photon number)” value is “significantly antagonised growth of both brain and subcutaneous tumours compared to buffer controls”; the “subcutaneous tumour growth (photon number)” value is “significantly antagonised growth of both brain and subcutaneous tumours compared to buffer controls”. Moreover, the “brain versus subcutaneous tumour effect” value in data set [2] (7.0 μmoles/kg, B16-Luc, C57BL/6) is “effect of IF7C(RR)-SN38 on brain tumours is comparable to that on subcutaneous tumours”. In addition, in the data set with B16-Luc brain tumours (10% Solutol HS15), the “B16-Luc brain tumour response during the first week” value is listed as “tumours began shrinking during the first week of daily injections”; the “B16-Luc brain tumour, final outcome” value is “completely disappeared; also recorded: complete disappearance of brain tumours”; the “survival after cessation of treatment without signs of B16-Luc cell growth” value is given as “more than 3 months”. Also, the “therapeutic effect with Solutol HS15 relative to Cremophore EL” value in the data set on B16-Luc brain tumours (10% Solutol HS15 in water) is “significantly improved”. Further, the “B16-Luc brain tumour response, second week without injection” value in the data set with B16-Luc brain tumours (then no drug) was “continued shrinking during the second week without drug injection”. In addition, in the data set with C6-Luc brain tumours, the “C6-Luc brain tumour growth” value is “suppressed the tumour growth” and the “complete disappearance of C6-Luc brain tumours” value is listed as “did not promote complete disappearance of brain tumours”. Moreover, the “B16-Luc tumour formation after s.c. rechallenge” value in the data set on B16-Luc cells is “B16-Luc tumours did not appear”. Further, the “LL/2-Luc tumour formation after s.c. challenge” value in the data set with LL/2-Luc cells is on record as “LL/2-Luc tumours grew”. In addition, the “CD8+ cell infiltration at injection sites” value in the data set with CD8+ T cells was determined as 92.2 cells/HPF. For the same molecule, in [3], the “SN38 in brain tumours” value is “did not detect SN38 in brain tumours”.
